Columns and labels:
Assay type in all cases: cell-based
human TLR7 = target: T1, human TLR7 (Homo sapiens, UniProt Q9NYK1); assay: TLR7 inhibition reporter assay (HEK-Blue SEAP); conditions: HEK-Blue cells overexpressing human TLR7, stimulated with gardiquimod 7.5 μM, 22 hour incubation
T1 construct: host or cells: HEK-Blue cells
T1 sequence (Q9NYK1 27-1049): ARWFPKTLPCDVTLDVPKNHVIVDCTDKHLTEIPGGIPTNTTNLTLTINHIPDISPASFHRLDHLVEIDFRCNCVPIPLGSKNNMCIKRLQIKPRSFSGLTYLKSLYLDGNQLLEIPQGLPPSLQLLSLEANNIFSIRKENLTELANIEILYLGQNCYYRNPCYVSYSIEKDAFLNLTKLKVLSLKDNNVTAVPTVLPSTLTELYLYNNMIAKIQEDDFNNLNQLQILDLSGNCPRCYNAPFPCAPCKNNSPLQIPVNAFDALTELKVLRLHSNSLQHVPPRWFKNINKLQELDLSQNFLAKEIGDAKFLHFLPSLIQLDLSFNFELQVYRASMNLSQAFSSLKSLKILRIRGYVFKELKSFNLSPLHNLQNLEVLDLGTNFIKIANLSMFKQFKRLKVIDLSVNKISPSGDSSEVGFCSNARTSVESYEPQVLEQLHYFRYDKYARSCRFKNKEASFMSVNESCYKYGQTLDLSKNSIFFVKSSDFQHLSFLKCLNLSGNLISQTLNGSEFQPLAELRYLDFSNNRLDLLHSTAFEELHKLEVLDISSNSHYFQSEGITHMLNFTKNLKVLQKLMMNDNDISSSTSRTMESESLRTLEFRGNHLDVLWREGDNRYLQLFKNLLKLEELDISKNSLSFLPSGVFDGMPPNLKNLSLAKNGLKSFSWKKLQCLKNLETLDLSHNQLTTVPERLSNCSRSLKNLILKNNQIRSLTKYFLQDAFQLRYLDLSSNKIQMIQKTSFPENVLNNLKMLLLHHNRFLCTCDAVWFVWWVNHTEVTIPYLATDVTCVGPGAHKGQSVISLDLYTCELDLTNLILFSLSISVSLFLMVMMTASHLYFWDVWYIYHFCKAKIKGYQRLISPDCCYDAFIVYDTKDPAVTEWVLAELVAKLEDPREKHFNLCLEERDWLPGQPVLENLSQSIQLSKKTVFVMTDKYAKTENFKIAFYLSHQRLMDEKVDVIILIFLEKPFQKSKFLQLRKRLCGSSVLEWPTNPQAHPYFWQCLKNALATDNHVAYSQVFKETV
Outline: (§1)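 Cells are seeded, given test compound across 0.05 nM to 50 μM, and after 30 min at room temperature stimulated with the receptor's agonist (gardiquimod 7.5 μM, R848 15.9 μM or ODN2006 5 nM for TLR7, 8, 9). SEAP is measured after 22 h at 37 °C.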

human TLR8 = target: T2, human TLR8 (Homo sapiens, UniProt Q9NR97); assay: TLR8 inhibition reporter assay (HEK-Blue SEAP); conditions: HEK-Blue cells overexpressing human TLR8, stimulated with R848 15.9 μM, 22 hour incubation
T2 construct: host or cells: HEK-Blue cells
T2 sequence (Q9NR97 27-1041): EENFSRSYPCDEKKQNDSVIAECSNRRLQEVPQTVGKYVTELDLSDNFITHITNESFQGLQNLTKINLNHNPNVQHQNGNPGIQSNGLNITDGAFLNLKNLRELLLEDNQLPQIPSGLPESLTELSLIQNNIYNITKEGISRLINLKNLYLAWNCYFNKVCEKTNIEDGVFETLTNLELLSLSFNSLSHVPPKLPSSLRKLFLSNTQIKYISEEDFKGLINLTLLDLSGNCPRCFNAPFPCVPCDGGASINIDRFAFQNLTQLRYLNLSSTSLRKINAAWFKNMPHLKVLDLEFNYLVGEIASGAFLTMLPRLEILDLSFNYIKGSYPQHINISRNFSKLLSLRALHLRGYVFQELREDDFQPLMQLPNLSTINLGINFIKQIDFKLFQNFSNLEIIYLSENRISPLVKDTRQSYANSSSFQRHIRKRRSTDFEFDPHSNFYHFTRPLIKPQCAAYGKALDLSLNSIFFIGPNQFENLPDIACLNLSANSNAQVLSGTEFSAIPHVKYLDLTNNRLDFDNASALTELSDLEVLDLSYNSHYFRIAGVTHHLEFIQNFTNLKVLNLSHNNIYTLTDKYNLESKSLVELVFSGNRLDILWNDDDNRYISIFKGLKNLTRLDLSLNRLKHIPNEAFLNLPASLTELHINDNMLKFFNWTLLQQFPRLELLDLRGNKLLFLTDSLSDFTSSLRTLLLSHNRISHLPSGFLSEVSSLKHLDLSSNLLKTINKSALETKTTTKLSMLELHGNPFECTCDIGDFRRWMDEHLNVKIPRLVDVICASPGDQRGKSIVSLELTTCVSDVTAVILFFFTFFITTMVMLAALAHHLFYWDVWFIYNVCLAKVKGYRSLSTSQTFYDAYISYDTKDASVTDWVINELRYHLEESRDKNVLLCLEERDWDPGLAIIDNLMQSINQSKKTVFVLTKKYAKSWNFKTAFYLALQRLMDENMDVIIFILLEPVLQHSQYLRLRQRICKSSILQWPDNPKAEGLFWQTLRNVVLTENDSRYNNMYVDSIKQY
Outline: as §1

human TLR9 = target: T3, human TLR9 (Homo sapiens, UniProt Q9NR96); assay: TLR9 inhibition reporter assay (HEK-Blue SEAP); conditions: HEK-Blue cells overexpressing human TLR9, stimulated with ODN2006 5 nM, 22 hour incubation
T3 construct: host or cells: HEK-Blue cells
T3 sequence (Q9NR96 26-1032): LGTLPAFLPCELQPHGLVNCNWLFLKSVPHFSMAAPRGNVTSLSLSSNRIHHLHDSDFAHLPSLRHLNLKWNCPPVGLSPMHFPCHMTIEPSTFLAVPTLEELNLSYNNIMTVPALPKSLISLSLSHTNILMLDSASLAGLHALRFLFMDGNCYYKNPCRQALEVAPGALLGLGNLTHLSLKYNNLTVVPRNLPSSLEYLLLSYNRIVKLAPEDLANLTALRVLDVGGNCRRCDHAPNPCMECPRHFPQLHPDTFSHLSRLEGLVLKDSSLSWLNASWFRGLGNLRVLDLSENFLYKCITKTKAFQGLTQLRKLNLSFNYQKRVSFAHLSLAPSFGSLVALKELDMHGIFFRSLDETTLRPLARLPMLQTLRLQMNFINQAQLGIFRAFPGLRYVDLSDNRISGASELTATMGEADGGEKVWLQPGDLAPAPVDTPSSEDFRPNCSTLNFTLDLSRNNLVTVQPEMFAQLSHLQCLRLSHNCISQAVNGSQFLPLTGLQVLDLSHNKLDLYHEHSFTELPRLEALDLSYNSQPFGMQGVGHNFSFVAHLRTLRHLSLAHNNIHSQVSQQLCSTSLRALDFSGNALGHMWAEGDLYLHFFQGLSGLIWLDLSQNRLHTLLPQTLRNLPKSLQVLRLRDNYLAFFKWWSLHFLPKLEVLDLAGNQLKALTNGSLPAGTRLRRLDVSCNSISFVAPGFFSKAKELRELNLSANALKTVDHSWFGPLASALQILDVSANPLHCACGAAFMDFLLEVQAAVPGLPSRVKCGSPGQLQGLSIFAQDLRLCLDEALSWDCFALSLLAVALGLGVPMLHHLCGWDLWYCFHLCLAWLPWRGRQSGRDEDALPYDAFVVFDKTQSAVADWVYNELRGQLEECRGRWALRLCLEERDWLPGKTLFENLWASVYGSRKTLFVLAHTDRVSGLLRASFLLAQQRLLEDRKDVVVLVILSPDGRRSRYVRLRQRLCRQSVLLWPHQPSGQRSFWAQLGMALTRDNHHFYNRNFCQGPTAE
Outline: as §1

IC50 (human TLR7) [nM]	IC50 (human TLR8) [nM]	IC50 (human TLR9) [µM]	SMILES
1.3	31.3	6.45	COc1cc(-c2cc3[nH]nc(C4CCC(N5CC(OC)C5)CC4)c3cc2C(C)C)cn2ncnc12 (single isomer, unassigned) [Example 148, 6-(5-isopropyl-3-(4-(3-methoxyazetidin-1-yl)cyclohexyl)-1H-indazol-6-yl)-8-methoxy-[1,2,4]triazolo[1,5-a]pyridine]
49.3	15.5	4.94	Cc1cc2c(C3CCNCC3)n[nH]c2cc1-c1cc(C)c2nnnn2c1 [Example 74, 8-methyl-6-(5-methyl-3-(piperidin-4-yl)-1H-indazol-6-yl) tetrazolo[1,5-a]pyridine]
4.9	13.5	1.56	Cc1cc(-c2cc(C)c3ncnn3c2)cc2[nH]nc(C3CCCN(C(=O)CN(C)C)C3)c12 (stereo not drawn) [Example 5, 2-(dimethylamino)-1-(3-(4-methyl-6-(8-methyl-[1,2,4]triazolo[1,5-a]pyridin-6-yl)-1H-indazol-3-yl)piperidin-1-yl)ethan-1-one]
4.2	0.2	8.9	Cc1cc(-c2cc3[nH]nc(C4CCC(N5CCC(C)(O)C5)CC4)c3cc2C(C)C)cn2ncnc12 (single isomer, unassigned) [Example 166, 1-(4-(5-isopropyl-6-(8-methyl-[1,2,4]triazolo[1,5-a]pyridin-6-yl)-1H-indazol-3-yl)cyclohexyl)-3-methylpyrrolidin-3-ol]
3.8	2.5	2.84	Cc1cc(-c2cc(C)c3ncnn3c2)cc2[nH]nc(C3CCC(N(C)C)CC3)c12 (stereo not drawn) [Example 80, N,N-dimethyl-4-(4-methyl-6-(8-methyl-[1,2,4]triazolo[1,5-a]pyridin-6-yl)-1H-indazol-3-yl) cyclohexan-1-amine]
2.5	0.3	12.1	Cc1cc(-c2cc3[nH]nc(C4CCC(NCC(=O)N(C)C)CC4)c3cc2C(C)C)cn2ncnc12 (single isomer, unassigned) [Example 125, 2-((4-(5-isopropyl-6-(8-methyl-[1,2,4]triazolo[1,5-a]pyridin-6-yl)-1H-indazol-3-yl)cyclohexyl)amino)-N,N-dimethylacetamide]
0.9	0.1	14	CCc1cc2c(C3CCC(NCCS(C)(=O)=O)CC3)n[nH]c2cc1-c1cc(C)c2ncnn2c1 (single isomer, unassigned) [Example 99, 4-(5-ethyl-6-(8-methyl-[1,2,4]triazolo[1,5-a]pyridin-6-yl)-1H-indazol-3-yl)-N-(2-(methylsulfonyl)ethyl)cyclohexan-1-amine]
219	47	≥ 50	Cc1cc(-c2cc(C)c3ncnn3c2)cc2[nH]ncc12 [Example 65, 8-methyl-6-(4-methyl-1H-indazol-6-yl)-[1,2,4]triazolo[1,5-a]pyridine]
14.1	0.7	6.1	Cc1cc2c(N3CCNCC3)n[nH]c2cc1-c1cc(C)c2ncnn2c1 [Example 205, 8-methyl-6-(5-methyl-3-(piperazin-1-yl)-1H-indazol-6-yl)-[1,2,4]triazolo[1,5-a]pyridine]
11	0.9	12.2	CCc1cc2c(C3CCN(C(=O)CCN(C)C)CC3)n[nH]c2cc1-c1cc(C)c2ncnn2c1 [Example 103, 3-(dimethylamino)-1-(4-(5-ethyl-6-(8-methyl-[1,2,4]triazolo[1,5-a]pyridin-6-yl)-1H-indazol-3-yl)piperidin-1-yl)propan-1-one]
6.5	0.15	33.3	Cc1cc(-c2cc3[nH]nc(N4CCN(C5CCOCC5)CC4)c3cc2C(C)C)cn2ncnc12 [Example 207, 6-(5-isopropyl-3-(4-(tetrahydro-2H-pyran-4-yl)piperazin-1-yl)-1H-indazol-6-yl)-8-methyl-[1,2,4]triazolo[1,5-a]pyridine]
23.8	0.9	3.96	Cc1cc2c(C3CCN(CC(C)(C)O)CC3)n[nH]c2cc1-c1cc(C)c2ncnn2c1 [Example 67, 2-methyl-1-(4-(5-methyl-6-(8-methyl-[1,2,4]triazolo[1,5-a]pyridin-6-yl)-1H-indazol-3-yl)piperidin-1-yl)propan-2-ol]
0.2	0.1	4.2	Cc1cc(-c2cc3[nH]nc(C4CCC(N5CCCC5)CC4)c3cc2C(C)C)cn2ncnc12 (single isomer, unassigned) [Example 130, 6-(5-isopropyl-3-(4-(pyrrolidin-1-yl)cyclohexyl)-1H-indazol-6-yl)-8-methyl-[1,2,4]triazolo[1,5-a]pyridine]

Reference: US12172995B2, “Substituted indole and indazole compounds” (BRISTOL-MYERS SQUIBB COMPANY, priority 2018, dated 2024)
